Reference: ChEMBL document CHEMBL1133435, “Syntheses and evaluation of naphthalenyl- and chromenyl-pyrrolyl-benzoic acids as potent and selective retinoic acid receptor alpha agonists” (Bioorg Med Chem Lett, 2000)

Key:
[1] = molecular target: T1, Retinoic acid receptor alpha (Homo sapiens) (UniProt P10276); assay: Binding affinity for Retinoic acid receptor alpha relative to ATRA
T1 sequence (whole entry): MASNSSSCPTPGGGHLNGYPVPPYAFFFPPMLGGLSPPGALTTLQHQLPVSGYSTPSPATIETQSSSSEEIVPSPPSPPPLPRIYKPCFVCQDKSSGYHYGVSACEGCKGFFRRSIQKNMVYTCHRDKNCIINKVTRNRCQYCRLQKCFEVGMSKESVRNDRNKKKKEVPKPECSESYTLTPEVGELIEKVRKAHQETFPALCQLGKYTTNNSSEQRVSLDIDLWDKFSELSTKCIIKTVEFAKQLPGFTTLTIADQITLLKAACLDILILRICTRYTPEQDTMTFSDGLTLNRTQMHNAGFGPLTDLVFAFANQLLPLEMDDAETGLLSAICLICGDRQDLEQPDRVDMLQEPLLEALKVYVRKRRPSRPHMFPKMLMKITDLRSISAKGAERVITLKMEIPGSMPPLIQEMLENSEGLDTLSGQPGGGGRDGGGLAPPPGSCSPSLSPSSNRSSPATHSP

[2] = molecular target: T2, Retinoic acid receptor beta (Homo sapiens) (UniProt P10826); assay: Relative transcriptional activation in CV-1 cells expressing RAR beta receptor compared to ATRA; format: functional, cell-based; conditions: Cercopithecidae
T2 sequence (whole entry): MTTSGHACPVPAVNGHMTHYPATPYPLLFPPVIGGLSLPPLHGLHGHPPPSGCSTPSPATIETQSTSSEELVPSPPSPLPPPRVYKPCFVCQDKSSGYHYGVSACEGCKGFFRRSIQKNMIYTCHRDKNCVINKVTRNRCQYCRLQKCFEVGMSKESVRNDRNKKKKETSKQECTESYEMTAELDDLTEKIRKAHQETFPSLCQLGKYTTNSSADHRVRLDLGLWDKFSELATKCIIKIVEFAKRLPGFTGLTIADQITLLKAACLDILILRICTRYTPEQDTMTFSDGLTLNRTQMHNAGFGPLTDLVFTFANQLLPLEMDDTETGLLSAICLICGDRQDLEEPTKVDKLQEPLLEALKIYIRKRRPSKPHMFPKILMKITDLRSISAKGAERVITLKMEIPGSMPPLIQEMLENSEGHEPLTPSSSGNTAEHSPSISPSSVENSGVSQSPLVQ

[3] = molecular target: T3, Retinoic acid receptor gamma (Homo sapiens) (UniProt P13631); assay: Binding affinity for Retinoic acid receptor gamma relative to ATRA
T3 sequence (whole entry): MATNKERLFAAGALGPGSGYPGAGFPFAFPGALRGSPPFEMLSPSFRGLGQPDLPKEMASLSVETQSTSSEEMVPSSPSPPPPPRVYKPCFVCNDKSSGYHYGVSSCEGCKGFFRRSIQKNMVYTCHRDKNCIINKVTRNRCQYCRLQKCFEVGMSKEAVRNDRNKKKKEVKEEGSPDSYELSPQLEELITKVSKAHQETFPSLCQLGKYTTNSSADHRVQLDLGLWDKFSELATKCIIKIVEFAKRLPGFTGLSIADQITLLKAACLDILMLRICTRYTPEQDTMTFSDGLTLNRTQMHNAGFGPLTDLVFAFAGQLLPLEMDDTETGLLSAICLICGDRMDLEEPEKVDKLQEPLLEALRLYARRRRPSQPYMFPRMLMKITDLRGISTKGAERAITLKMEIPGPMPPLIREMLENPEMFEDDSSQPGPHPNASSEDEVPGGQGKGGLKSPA

[4] = molecular target: T3, Retinoic acid receptor gamma (Homo sapiens); assay: Relative transcriptional activation in CV-1 cells expressing RAR gamma receptor compared to ATRA; format: functional, cell-based; conditions: Cercopithecidae
[5] = molecular target: T1, Retinoic acid receptor alpha (Homo sapiens); assay: Relative transcriptional activation in CV-1 cells expressing RAR alpha receptor compared to ATRA; format: functional, cell-based; conditions: Cercopithecidae
[6] = system: HL-60; assay: Induction of HL-60 cell differentiation; format: functional; conditions: Homo sapiens
[7] = molecular target: T2, Retinoic acid receptor beta (Homo sapiens); assay: Binding affinity for Retinoic acid receptor beta relative to ATRA
[8] = molecular target: T3, Retinoic acid receptor gamma (Homo sapiens); assay: Relative transcriptional activation in CV-1 cells expressing RAR gamma receptor compared to ATRA; Not detectable; format: functional, cell-based; conditions: Cercopithecidae
[9] = molecular target: T1, Retinoic acid receptor alpha (Homo sapiens); assay: Binding affinity for Retinoic acid receptor alpha relative to ATRA; Not detectable
[10] = molecular target: T1, Retinoic acid receptor alpha (Homo sapiens); assay: Relative transcriptional activation in CV-1 cells expressing RAR alpha receptor compared to ATRA; Not detectable; format: functional, cell-based; conditions: Cercopithecidae
[11] = molecular target: T2, Retinoic acid receptor beta (Homo sapiens); assay: Relative transcriptional activation in CV-1 cells expressing RAR beta receptor compared to ATRA; Not detectable; format: functional, cell-based; conditions: Cercopithecidae
[12] = molecular target: T1, Retinoic acid receptor alpha (Homo sapiens); conditions: Cercopithecidae; CV-1
Description: Transcriptional activation in CV-1 cells expressing RAR alpha receptor

[13] = molecular target: T2, Retinoic acid receptor beta (Homo sapiens); conditions: Cercopithecidae; CV-1
Description: Transcriptional activation in CV-1 cells expressing RAR beta receptor

Structure (SMILES)	Relative IC50 [1] [nM]	Relative EC30 [2] [nM]	Relative IC50 [3] [nM]	Relative EC30 [4] [nM]	Relative EC30 [5] [nM]	EC30 [6] [nM]	Relative IC50 [7] [nM]	Relative EC30 [8] [nM]	Relative IC50 [9] [nM]	Relative EC30 [10] [nM]	Relative EC30 [11] [nM]	EC30 [12] [nM]	EC30 [13] [nM]
CC(C)c1cccc2ccc(-c3ccc(-c4ccc(C(=O)O)cc4)[nH]3)cc12	< 1	78	910	88	1.1	100	> 1000						
Cc1c(C)c(C)c2cc(-c3ccc(-c4ccc(C(=O)O)cc4)[nH]3)ccc2c1C			> 1000				> 1000	> 10000	> 1000	> 10000	> 10000		
CC1=C(/C=C/C(C)=C/C=C/C(C)=C/C(=O)O)C(C)(C)CCC1												1.1	0.69
O=C(O)c1ccc(-c2ccc(-c3ccc4cccc(-c5ccccc5)c4c3)[nH]2)cc1	1.4	880	> 1000		> 10000		> 1000	> 10000					
CC(/C=C/C=C(\C)c1ccc2c(C)ccc(C)c2c1)=C\C(=O)O	2.7	11	227	660	20		49						
Cc1ccc(C)c2c1C=C(c1ccc(-c3ccc(C(=O)O)cc3)[nH]1)CO2	9.7	240	> 1000	3600	1.8		> 1000						
Cc1cc(C)c2ccc(-c3ccc(-c4ccc(C(=O)O)cc4)[nH]3)cc2c1			> 1000		90		> 1000	> 10000	> 1000		> 10000		
Cc1cccc2c1C=C(c1ccc(-c3ccc(C(=O)O)cc3)[nH]1)CO2	50	1030	> 1000	5250	4.5		> 1000						
CC(/C=C/C=C(\C)c1ccc2c(c1)C(C)(C)CCC2(C)C)=C\C(=O)O	0.49	0.2	0.67	0.24	0.27		0.34						
Cc1cccc2ccc(-c3ccc(-c4ccc(C(=O)O)cc4)[nH]3)cc12	15		> 1000		49		> 1000	> 10000			> 10000		
Cc1ccc(C)c2cc(-c3ccc(-c4ccc(C(=O)O)cc4)[nH]3)ccc12	24	250	> 1000	2200	2.8		> 1000						
